Laboratory results taken from patent publication US20220304302A1, “MUCILAGE BASED PLANT PROTECTION PRODUCT AND METHOD THEREOF” (BOTANOHEALTH LTD., priority 2019, published 2022).

Tested on: Powdery mildew
Assay: Powdery mildew on whole Bell pepper plants
Type: in vivo
Settings: 1000 spores, evaluated every 24 hours for 3 days
Description: Bell pepper plants where obtained at 4 weeks, replanted and acclimatized (22-28° C., 16 hour light). • ii. Plants where divided between treated plants: present formulation/active agent (thyme oil 0.1%)+Soap, negative control plants (no active fungicide) and a positive control (Penconazole, Ophir 2000). The plants were treated on 4 leafs, at 6 places on each leaf, with a solution containing 1000 spores. Infected plants were preserved in a moist environment. • iii. Fungi infestation was evaluated every 24 hours for 3 days: • i. Treated: 55% of leafs where infected; • ii. Negative control: 97.5 of leafs where infected • iii. Positive control: 40% of leafs where infected

Compound `CCCC(Cn1cncn1)c1ccc(Cl)cc1Cl` (stereo not shown) [Penconazole] has a leafs infected of 40%.
